Among the data in US5318967A, “2,3,3a,4,5,9b-hexahydro-1H-benzo[e]indole derivatives” (priority 1991, dated 1994) are IC50 values, retold here.

Sequence of acetylcholine esterase (P22303 32-614): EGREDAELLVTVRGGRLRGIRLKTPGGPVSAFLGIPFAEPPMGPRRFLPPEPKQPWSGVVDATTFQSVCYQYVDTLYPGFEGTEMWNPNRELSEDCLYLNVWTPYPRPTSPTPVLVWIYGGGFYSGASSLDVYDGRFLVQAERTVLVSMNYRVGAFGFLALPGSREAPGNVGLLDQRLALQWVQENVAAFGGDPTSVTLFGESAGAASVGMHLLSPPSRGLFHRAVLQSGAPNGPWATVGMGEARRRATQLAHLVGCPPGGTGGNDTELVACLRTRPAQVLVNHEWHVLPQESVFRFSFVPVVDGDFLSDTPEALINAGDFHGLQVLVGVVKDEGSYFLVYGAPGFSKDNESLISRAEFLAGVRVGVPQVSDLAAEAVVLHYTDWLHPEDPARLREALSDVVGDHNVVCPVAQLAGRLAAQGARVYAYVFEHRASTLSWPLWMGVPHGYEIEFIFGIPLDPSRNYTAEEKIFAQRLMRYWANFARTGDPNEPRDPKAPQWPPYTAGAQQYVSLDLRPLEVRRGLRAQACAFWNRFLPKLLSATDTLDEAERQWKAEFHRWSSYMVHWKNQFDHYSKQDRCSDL

The assay has as its target acetylcholine esterase (Homo sapiens, UniProt P22303). As to the kind of experiment: biochemical. To be noted: read-out: IC 50 for acetylcholine esterase inhibition. The text has this: The determination of the acetylcholine esterase inhibition was effected according to the method of Ellmann et al., Biochem. Pharmacol. 7 (1961) 88, and/or according to the method of Johnson et al., Analytical Biochemistry 64 (1975), 229.
In the case of `CN(C)C(=O)Oc1cccc2c1CC[C@H]1[C@@H]2CCN1CCCC(=O)c1ccc(F)cc1` (racemic) [rac-3-[3-(4-fluoro-benzoyl)-propyl]-cis-2,3,3a,4,5,9b-hexahydro-1H-benzo[e]indol-6-yl dimethylcarbamate], the IC50 is 6.8 nM. Consider `COc1ccc(C(=O)CCCCCN2CC[C@@H]3c4cccc(OC(=O)N(C)C)c4CC[C@@H]32)cc1OC` (racemic) [rac-3-[5-(3,4-dimethoxy-benzoyl)-pentyl]-cis-2,3,3a,4,5,9b-hexahydro-1H-benzo[e]indol-6-yl dimethylcarbamate], for which the IC50 is 1.2 nM.

In the case of `CN(C)C(=O)Oc1cccc2c1CC[C@H]1[C@@H]2CCN1CCCC1CCCC1` (racemic) [rac-cis-3-(3-cyclopentyl-propyl)-2,3,3a,4,5,9b-hexahydro-1H-benzo[e]indol-6-yl dimethylcarbamate], the IC50 is 14 nM. `CN(C)C(=O)Oc1cccc2c1CC[C@H]1[C@@H]2CCN1CCc1ccccc1` (racemic) [rac-3-phenethyl-cis-2,3,3a,4,5,9b-hexahydro-1H-benzo[e]indol-6-yl dimethylcarbamate]: the IC50 came out at 47 nM.

Regarding `CN(C)C(=O)Oc1cccc2c1CC[C@@H]1[C@H]2CCN1CCCCCNC(=O)c1ccccc1` (relative stereo) [rac-3-(5-benzoylaminopentyl)-2,3,3a,4,5,9b-hexahydro-1H-cis-benzo[e]indol-6-yl dimethylcarbamate], the IC50 turned out to be 15.2 nM.

As to `CN(C)C(=O)Oc1cccc2c1CC[C@H]1[C@@H]2CCN1CC1CCCCC1` (racemic) [rac-3-cyclohexylmethyl-cis-2,3,3a,4,5,9b-hexahydro-1H-benzo[e]indol-6-yl dimethylcarbamate], the IC50 amounted to 36 nM. Next, `CN(C)C(=O)Oc1cccc2c1CC[C@H]1[C@@H]2CCN1CCCCCN1Cc2ccccc2C1=O` (racemic) [rac-3-[5-(1-oxo-isoindolin-2-yl)-pentyl]-cis-2,3,3a,4,5,9b-hexahydro-1H-benzo[e]indol-6-yl dimethylcarbamate]: 4.5 nM. As for `CN(C)C(=O)Oc1cccc2c1CC[C@H]1[C@@H]2CCN1CCCCC1CCCCC1` (racemic) [rac-cis-3-(4-cyclohexyl-butyl)-2,3,3a,4,5,9b-hexahydro-1H-benzo[e]indol-6-yl dimethylcarbamate], the IC50 came out at 35 nM.

Regarding `CNC(=O)Oc1cccc2c1CC[C@H]1[C@@H]2CCN1CCC1CCCCC1` (single isomer, unassigned) [(+)-cis-3-(2-cyclohexylethyl)-2,3,3a,4,5,9b-hexahydro-1H-benzo[e]indol-6-yl methylcarbamate], the IC50 was 18 nM. In the case of `CN(C)C(=O)Oc1cccc2c1CC[C@H]1[C@@H]2CCN1CCCc1ccccc1` (racemic) [rac-3-(3-phenylpropyl)-cis-2,3,3a,4,5,9b-hexahydro-1H-benzo[e]indol-6-yl dimethylcarbamate], the IC50 worked out at 36 nM. Regarding `CN(C)C(=O)Oc1cccc2c1CC[C@@H]1[C@H]2CCN1Cc1ccccc1` (relative stereo) [rac-3-benzyl-2,3,3a,4,5,9b-hexahydro-1H-cis-benzo[e]indol-6-yl dimethylcarbamate], the IC50 stood at 49 nM.

For the molecule `CN(C)C(=O)Oc1cccc2c1CC[C@@H]1[C@H]2CCN1CCCCCN` (relative stereo) [rac-3-(5-aminopentyl)-2,3,3a,4,5,9b-hexahydro-1H-cis-benzo[e]indol-6-yl dimethylcarbamate], the IC50 came out at 111 nM. `CCCCNC(=O)Oc1cccc2c1CC[C@H]1[C@@H]2CCN1CCC1CCCCC1` (racemic) [rac-cis-3-(2-cyclohexylethyl)-2,3,3a,4,5,9b-hexahydro-1H-benzo[e]indol-6-yl butylcarbamate]: the IC50 amounted to 793 nM. For `CN(C)C(=O)Oc1cccc2c1CC[C@H]1[C@H]2CCN1CCC1CCCCC1` (single isomer, unassigned) [(+)-trans-3-(2-cyclohexylethyl)-2,3,3a,4,5,9b-hexahydro-1H-benzo[e]indol-6-yl dimethylcarbamate] the value was 22 nM. For `CN(C)C(=O)Oc1cccc2c1CC[C@H]1[C@@H]2CCN1CCCCCN1C(=O)CC(C)(C)CC1=O` (racemic) [rac-3-[5-(4,4-dimethyl-2,6-dioxo-piperidin-1-yl)-pentyl]-cis-2,3,3a,4,5,9b-hexahydro-1H-benzo[e]indol-6-yl dimethylcarbamate], the IC50 was found to be 11 nM. As to `CN(C)C(=O)Oc1cccc2c1CC[C@H]1[C@@H]2CCN1CCCCNC(=O)c1ccccc1` (racemic) [rac-cis-3-(4-benzoylaminobutyl)-2,3,3a,4,5,9b-hexahydro-1H-benzo[e]indol-6-yl dimethylcarbamate], the IC50 worked out at 16 nM. For `COc1ccc(C(=O)CCCCN2CC[C@@H]3c4cccc(OC(=O)N(C)C)c4CC[C@@H]32)cc1OC` (racemic) [rac-3-[4-(3,4-Dimethoxy-benzoyl)-butyl]-cis-2,3,3a,4,5,9b-hexahydro-1H-benzo[e]indol-6-yl dimethylcarbamate], the IC50 stood at 1.4 nM.

On to `CN(C)C(=O)Oc1cccc2c1CC[C@H]1[C@@H]2CCN1CCCN1CCOCC1` (racemic) [rac-3-(3-morpholin-4-yl-propyl)-cis-2,3,3a,4,5,9b-hexahydro-1H-benzo[e]indol-6-yl dimethylcarbamate], for which the IC50 was 63 nM. For `CCNC(=O)Oc1cccc2c1CC[C@H]1[C@@H]2CCN1CCC1CCCCC1` (single isomer, unassigned) [(+)-cis-3-(2-cyclohexylethyl)-2,3,3a,4,5,9b-hexahydro-1H-benzo[e]indol-6-yl ethylcarbamate] the value was 2460 nM; for `CN(C)C(=O)Oc1cccc2c1CC[C@H]1[C@@H]2CCN1CCCC1CCCCC1` (racemic) [rac-3-(3-cyclohexylpropyl)-cis-2,3,3a,4,5,9b-hexahydro-1H-benzo[e]indol-6-yl dimethylcarbamate], 19 nM. Consider `CN(C)C(=O)Oc1cccc2c1CC[C@H]1[C@@H]2CCN1CCC1CCCC1` (racemic) [rac-3-(2-cyclopentylethyl)-cis-2,3,3a,4,5,9b-hexahydro-1H-benzo[e]indol-6-yl dimethylcarbamate], for which the IC50 was found to be 30 nM. As for `CN(C)C(=O)Oc1cccc2c1CC[C@@H]1[C@H]2CCN1CCCCN` (relative stereo) [rac-3-(4-aminobutyl)-2,3,3a,4,5,9b-hexahydro-1H-cis-benzo[e]indol-6-yl dimethylcarbamate], the IC50 is 267 nM. As to `CN(C)C(=O)Oc1cccc2c1CC[C@H]1[C@@H]2CCN1CCCCN1Cc2ccccc2C1=O` (racemic) [rac-3-[4-(1-oxo-isoindolin-2-yl)-butyl]-cis-2,3,3a,4,5,9b-hexahydro-1H-benzo[e]indol-6-yl dimethylcarbamate], the IC50 was 8.6 nM.

For `CN(C)C(=O)Oc1cccc2c1CC[C@@H]1[C@H]2CCN1CCCCNC(=O)c1ccc(S(C)(=O)=O)cc1` (relative stereo) [rac-N-[4-(6-dimethylcarbamoyloxy)-cis-2,3,3a,4,5,9b-hexahydro-1H-benzo[e]indol-3-yl)-butyl]-4-methanesulfonylbenzamide], the IC50 stood at 6.7 nM. Next, `CN(C)C(=O)Oc1cccc2c1CC[C@H]1[C@@H]2CCN1CCCC(=O)c1ccccc1` (racemic) [rac-3-(3-benzoyl-propyl)-cis-2,3,3a,4,5,9b-hexahydro-1H-benzo[e]indol-6-yl dimethylcarbamate]: 8.3 nM; `CN(C)C(=O)Oc1cccc2c1CC[C@H]1[C@@H]2CCN1CCCCN1C(=O)CC(C)(C)CC1=O` (racemic) [rac-3-[4-(4,4-dimethyl-2,6-dioxo-piperidin-1-yl)-butyl]-cis-2,3,3a,4,5,9b-hexahydro-1H-benzo[e]indol-6-yl dimethylcarbamate]: 13 nM; `CCCN1CC[C@@H]2c3cccc(OC(=O)N(C)C)c3CC[C@@H]21` (racemic) [rac-3-propyl-cis-2,3,3a,4,5,9b-hexahydro-1H-benzo[e]indol-6-yl dimethylcarbamate]: 40 nM.

With `CN(C)C(=O)Oc1cccc2c1CC[C@H]1[C@@H]2CCN1C1CCCC1` (racemic) [rac-cis-3-cyclopentyl-2,3,3a,4,5,9b-hexahydro-1H-benzo[e]indol-6-yl dimethylcarbamate], the IC50 is 95 nM. Consider `CC(C)CCN1CC[C@@H]2c3cccc(OC(=O)N(C)C)c3CC[C@@H]21` (racemic) [rac-3-(3-methylbutyl)-cis-2,3,3a,4,5,9b-hexahydro-1H-benzo[e]indol-6-yl dimethylcarbamate], for which the IC50 was determined as 67 nM. As for `CN(C)C(=O)Oc1cccc2c1CC[C@@H]1[C@H]2CCN1CCCCCN1C(=O)[C@H]2CCCC[C@H]2C1=O` (relative stereo) [rac-3-[5-(1,3-dioxo-octahydro-cis-isoindol-2-yl)pentyl]-2,3,3a,4,5,9b-hexahydro-1H-cis-benzo[e]indol-6-yl dimethylcarbamate], the IC50 turned out to be 7.8 nM. Regarding `CCCNC(=O)Oc1cccc2c1CC[C@H]1[C@@H]2CCN1CCC1CCCCC1` (single isomer, unassigned) [(+)-cis-3-(2-cyclohexylethyl)-2,3,3a,4,5,9b-hexahydro-1H-benzo[e]indol-6-yl propylcarbamate], the IC50 turned out to be 2.6 nM. For the molecule `CN(C)C(=O)Oc1cccc2c1CC[C@H]1[C@@H]2CCN1CCCCCN1C(=O)c2ccccc2C1=O` (racemic) [rac-3-[5-(1,3-dioxo-isoindolin-2-yl)-pentyl]-cis-2,3,3a,4,5,9b-hexahydro-1H-benzo[e]indol-6-yl dimethylcarbamate], the IC50 came out at 2.7 nM. As for `CN(C)C(=O)Oc1cccc2c1CC[C@@H]1[C@H]2CCN1CCCCCCNC(=O)c1ccccc1` (relative stereo) [rac-3-(6-benzoylamino-hexyl)-2,3,3a,4,5,9b-hexahydro-1H-cis-benzo[e]indol-6-yl-dimethylcarbamate], the IC50 amounted to 11 nM.

`CN(C)C(=O)Oc1cccc2c1CC[C@H]1[C@@H]2CCN1CCCCCCN1Cc2ccccc2C1=O` (racemic) [rac-3-[6-(1-oxo-isoindolin-2-yl)-hexyl]-cis-2,3,3a,4,5,9b-hexahydro-1H-benzo[e]indol-6-yl dimethylcarbamate]: the IC50 was 2.9 nM.
